{"source": "patent US3989835A", "about": "“Method of using 6-substituted amino phenyl-2,3,5,6-tetra-hydro[2,1-b]thiazoles for controlling gastrointestinal nematodes” (American Cyanamid Company, priority 1974, dated 1976)", "system": "Nematospiroides dubius", "test": "Anthelmintic efficacy against N. dubius in mice, single oral dose", "assay_type": "in vivo, Nematospiroides dubius (in albino female mice)", "conditions": "for inhibition in vivo at 100 mg/kg: single oral dose 100 mg./Kg.; for inhibition in vivo at 5 mg/kg: single oral dose 5.0 mg./Kg.; for inhibition in vivo at 50 mg/kg: single oral dose 50 mg./Kg.; for inhibition in vivo at 20 mg/kg: single oral dose 20 mg./Kg.; for Approx. ED50 / ED50: as Base, single oral dose, mice, > indicates inactive at dose shown; for ED50: read-out: Approx. ED50", "protocol": "Albino female mice are each inoculated with about 20 infectious larvae of Nematospiroides dubius. This nematode is a representative of the economical important trichostrongylis worms of ruminants and other hosts, and of nematodes in general. Twenty-two days after inoculation, groups of four randomly selected mice containing adult N. dubius are given single oral doses of test compounds dissolved or suspended in 0.4 ml. of water per 20 gram mouse. At 26 or 27 days after inoculation, treated mice and in each test four randomly selected groups of untreated mice are necropsied. The number of worms in the small intestine of each mouse are determined by microscopic examination. Average worm numbers for each treated group and for the untreated controls are computed and the percent efficacy determined by the customary formula:\n(Average Worms in Control - Average Worms in Treated)/(Average Worms in Control) X 100.", "key": {"[1]": {"conditions": "Heligmosomoides polygyrus, po, molar-adjusted, read-out: Percent Nematospiroides Activity"}, "[2]": {"conditions": "Heligmosomoides polygyrus, po, single oral dose 10 mg./Kg., molar-adjusted, read-out: Percent Nematospiroides Activity"}}, "note": "Structures can show the parent of a compound that is named as a salt.", "data": [{"smiles": "CC(=O)Nc1cccc(C2CN3CCSC3=N2)c1", "note": "(stereo not drawn) [H--N--CO--CH3 l-]", "values": [{"measurement": "Percent Nematospiroides Activity", "setting": "single oral dose 4.0 mg./Kg., molar-adjusted", "value": 51, "unit": "%"}, {"measurement": "Percent Nematospiroides Activity", "setting": "single oral dose 10 mg./Kg., molar-adjusted", "value": 100, "unit": "%"}]}, {"smiles": "CS(=O)(=O)Nc1cccc(C2CN3CCSC3=N2)c1", "note": "(stereo not drawn) [H--N--SO2 CH3]", "values": [{"measurement": "inhibition in vivo at 100 mg/kg", "setting": "[1]", "value": 100, "unit": "%"}]}, {"smiles": "CC(CO)Nc1cccc(C2CN3CCSC3=N2)c1", "note": "(stereo not drawn) [HN--CH(CH3)CH2 OH]", "values": [{"measurement": "inhibition in vivo at 5 mg/kg", "setting": "[1]", "value": 1, "unit": "%"}, {"measurement": "inhibition in vivo at 10 mg/kg", "setting": "[2]", "value": 1, "unit": "%"}, {"measurement": "inhibition in vivo at 50 mg/kg", "setting": "[1]", "value": 67, "unit": "%"}]}, {"smiles": "c1ccc(CNc2cccc(C3CN4CCSC4=N3)c2)cc1", "note": "(stereo not drawn) [Table XII b1716]", "values": [{"measurement": "inhibition in vivo at 5 mg/kg", "setting": "[1]", "value": 56, "unit": "%"}, {"measurement": "inhibition in vivo at 10 mg/kg", "setting": "[2]", "value": 91, "unit": "%"}, {"measurement": "inhibition in vivo at 20 mg/kg", "setting": "[1]", "value": 95, "unit": "%"}]}, {"smiles": "COc1ccc(CNc2cccc(C3CN4CCSC4=N3)c2)cc1", "note": "(stereo not drawn) [Table XII b1718]", "values": [{"measurement": "inhibition in vivo at 10 mg/kg", "setting": "[2]", "value": 40, "unit": "%"}, {"measurement": "inhibition in vivo at 20 mg/kg", "setting": "[1]", "value": 100, "unit": "%"}, {"measurement": "inhibition in vivo at 50 mg/kg", "setting": "[1]", "value": 100, "unit": "%"}, {"measurement": "inhibition in vivo at 100 mg/kg", "setting": "[1]", "value": 100, "unit": "%"}]}, {"smiles": "O=C(Cc1ccccc1)Nc1cccc(C2CN3CCSC3=N2)c1", "note": "(stereo not drawn) [Table XII b1825]", "values": [{"measurement": "inhibition in vivo at 2 mg/kg", "setting": "Heligmosomoides polygyrus, po, single oral dose 2.0 mg./Kg., molar-adjusted, read-out: Percent Nematospiroides Activity", "value": 44, "unit": "%"}, {"measurement": "inhibition in vivo at 5 mg/kg", "setting": "[1]", "value": 76, "unit": "%"}, {"measurement": "inhibition in vivo at 10 mg/kg", "setting": "[2]", "value": 95, "unit": "%"}]}, {"smiles": "Nc1ccc(Br)c(C2CN3CCSC3=N2)c1", "note": "(stereo not drawn) [Table XIII b1902]", "values": [{"measurement": "inhibition in vivo at 30 mg/kg", "setting": "Heligmosomoides polygyrus, po, single oral dose 30 mg./Kg., molar-adjusted, read-out: Percent Nematospiroides Activity", "value": 37, "unit": "%"}, {"measurement": "inhibition in vivo at 60 mg/kg", "setting": "Heligmosomoides polygyrus, po, single oral dose 60 mg./Kg., molar-adjusted, read-out: Percent Nematospiroides Activity", "value": 97, "unit": "%"}]}, {"smiles": "CC(=O)Nc1ccc(Br)c(C2CN3CCSC3=N2)c1", "note": "(stereo not drawn) [Table XIII b1903]", "values": [{"measurement": "inhibition in vivo at 50 mg/kg", "setting": "[1]", "value": 100, "unit": "%"}, {"measurement": "inhibition in vivo at 100 mg/kg", "setting": "[1]", "value": 100, "unit": "%"}]}, {"smiles": "Nc1cccc(C2CN3CCSC3=N2)c1", "note": "(stereo not drawn) [d 2HCl NH2 meta, d-2,3,5,6-Tetrahydro-6-(m-aminophenyl)imidazo[2,1-b]thiazoleDihydrochloride]", "values": [{"measurement": "Approx. ED50", "value": 10, "unit": "Mg./Kg."}]}, {"smiles": "Nc1ccc(C2CN3CCSC3=N2)cc1", "note": "(stereo not drawn) [d 2HCl NH2 para, reference compound]", "values": [{"measurement": "Approx. ED50", "value": "> 20", "unit": "Mg./Kg."}]}, {"smiles": "O=CNc1ccc(C2CN3CCSC3=N2)cc1", "note": "(stereo not drawn) [d Base NH--HCO para, reference compound]", "values": [{"measurement": "Approx. ED50", "value": "> 40", "unit": "Mg./Kg."}]}, {"smiles": "O=[N+]([O-])c1cccc(C2CN3CCSC3=N2)c1", "note": "(stereo not drawn) [d HCl NO2 meta, d-6-(m-nitrophenyl)-2,3,5,6-tetrahydroimidazo[2,1-b]thiazole hydrochloride, reference compound]", "values": [{"measurement": "Approx. ED50", "setting": "hydrochloride", "value": "> 30", "unit": "Mg./Kg."}]}, {"smiles": "O=[N+]([O-])c1ccc(C2CN3CCSC3=N2)cc1", "note": "(stereo not drawn) [d HCl NO2 para, reference compound]", "values": [{"measurement": "Approx. ED50", "value": "> 200", "unit": "Mg./Kg."}]}, {"smiles": "Nc1ccc(C2CN3CCSC3=N2)cc1", "note": "(stereo not drawn) [l 2HCl NH2 para, reference compound]", "values": [{"measurement": "ED50", "setting": "Heligmosomoides polygyrus, po", "value": "> 10", "unit": "mg/kg"}]}, {"smiles": "CNc1ccc(C2CN3CCSC3=N2)cc1", "note": "(stereo not drawn) [l 2HCl NH--CH3 para, reference compound]", "values": [{"measurement": "ED50", "setting": "Heligmosomoides polygyrus, po", "value": "> 50", "unit": "mg/kg"}]}, {"smiles": "O=CNc1ccc(C2CN3CCSC3=N2)cc1", "note": "(stereo not drawn) [l Base NH--HCO para, reference compound]", "values": [{"measurement": "Approx. ED50", "value": "> 10", "unit": "Mg./Kg."}]}, {"smiles": "O=[N+]([O-])c1cccc(C2CN3CCSC3=N2)c1", "note": "(stereo not drawn) [l HCl NO2 meta, l-6-(m-Nitrophenyl)-2,3,5,6-tetrahydroimidazo[2,1-b]thiazole hydrochloride, reference compound]", "values": [{"measurement": "Approx. ED50", "setting": "hydrochloride", "value": 12, "unit": "Mg./Kg."}]}, {"smiles": "O=[N+]([O-])c1ccc(C2CN3CCSC3=N2)cc1", "note": "(stereo not drawn) [l HCl NO2 para, reference compound]", "values": [{"measurement": "Approx. ED50", "value": 40, "unit": "Mg./Kg."}]}]}
